US20120270237A9, “METHODS FOR THE IDENTIFICATION OF KINASE INTERACTING MOLECULES AND FOR THE PURIFICATION OF KINASE PROTEINS” (Cellzone AG, priority 2009, published 2012)

Assays:
Assay in all cases: Kinobeads competition binding, HeLa Placenta lysate mix
Set-up in all cases: endogenous in cells
Details in all cases: 10 μM free compound
[1] = molecular target: PKN1 (Homo sapiens, UniProt Q16512)
Procedure, shortened: (§1)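 Competition pulldown: free compound at 10 μM competes with an immobilized-compound affinity matrix for lysate proteins. Captured proteins undergo SDS-PAGE and in-gel tryptic digestion, then iTRAQ-labeled LC-MS/MS quantification relative to a DMSO-treated aliquot.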

[2] = molecular target: MPSK1 (Homo sapiens, UniProt O75716)
Procedure, shortened: as §1

[3] = molecular target: T1, PIP5K2C (Homo sapiens, UniProt Q8TBX8)
T1 sequence (Q8TBX8 1-421): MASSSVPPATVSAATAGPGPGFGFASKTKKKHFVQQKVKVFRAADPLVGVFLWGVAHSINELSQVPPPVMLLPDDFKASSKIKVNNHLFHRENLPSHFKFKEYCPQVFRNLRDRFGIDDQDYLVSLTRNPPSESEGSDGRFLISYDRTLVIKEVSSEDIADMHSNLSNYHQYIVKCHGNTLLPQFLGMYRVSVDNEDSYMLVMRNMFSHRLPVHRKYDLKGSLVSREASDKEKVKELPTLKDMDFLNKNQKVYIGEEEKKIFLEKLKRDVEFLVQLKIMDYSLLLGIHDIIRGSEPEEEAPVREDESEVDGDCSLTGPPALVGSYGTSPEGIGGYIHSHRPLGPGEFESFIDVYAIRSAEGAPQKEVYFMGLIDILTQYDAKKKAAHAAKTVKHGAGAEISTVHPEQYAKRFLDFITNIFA
Procedure, shortened: as §1

[4] = molecular target: BCR (Homo sapiens, UniProt P11274)
Procedure, shortened: as §1

[5] = molecular target: T2, MAP3K2 (Homo sapiens, UniProt Q9Y2U5)
T2 sequence (Q9Y2U5 1-619): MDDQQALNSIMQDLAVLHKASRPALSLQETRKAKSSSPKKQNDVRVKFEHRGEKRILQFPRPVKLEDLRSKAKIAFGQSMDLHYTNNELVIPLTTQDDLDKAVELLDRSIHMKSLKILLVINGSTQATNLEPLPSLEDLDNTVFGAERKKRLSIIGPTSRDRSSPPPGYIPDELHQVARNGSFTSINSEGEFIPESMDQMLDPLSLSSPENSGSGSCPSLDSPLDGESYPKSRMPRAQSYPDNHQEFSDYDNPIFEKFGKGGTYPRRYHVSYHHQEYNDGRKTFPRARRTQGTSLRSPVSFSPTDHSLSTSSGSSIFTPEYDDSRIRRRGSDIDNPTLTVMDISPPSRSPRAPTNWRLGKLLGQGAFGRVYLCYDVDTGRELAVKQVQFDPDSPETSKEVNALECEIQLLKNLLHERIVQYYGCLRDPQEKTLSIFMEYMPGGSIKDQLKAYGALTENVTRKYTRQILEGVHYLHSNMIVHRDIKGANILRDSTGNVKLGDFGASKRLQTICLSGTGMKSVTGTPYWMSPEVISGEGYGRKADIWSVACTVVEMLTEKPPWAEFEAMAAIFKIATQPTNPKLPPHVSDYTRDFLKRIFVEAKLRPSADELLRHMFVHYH
Procedure, shortened: as §1

[6] = molecular target: AMPKa1 (Homo sapiens, UniProt Q13131)
Procedure, shortened: as §1

[7] = molecular target: BIKE (Homo sapiens, UniProt Q9NSY1)
Procedure, shortened: as §1

[8] = molecular target: CDC2 (Homo sapiens, UniProt P06493)
Procedure, shortened: as §1

Chain of BIKE (Q9NSY1 whole entry): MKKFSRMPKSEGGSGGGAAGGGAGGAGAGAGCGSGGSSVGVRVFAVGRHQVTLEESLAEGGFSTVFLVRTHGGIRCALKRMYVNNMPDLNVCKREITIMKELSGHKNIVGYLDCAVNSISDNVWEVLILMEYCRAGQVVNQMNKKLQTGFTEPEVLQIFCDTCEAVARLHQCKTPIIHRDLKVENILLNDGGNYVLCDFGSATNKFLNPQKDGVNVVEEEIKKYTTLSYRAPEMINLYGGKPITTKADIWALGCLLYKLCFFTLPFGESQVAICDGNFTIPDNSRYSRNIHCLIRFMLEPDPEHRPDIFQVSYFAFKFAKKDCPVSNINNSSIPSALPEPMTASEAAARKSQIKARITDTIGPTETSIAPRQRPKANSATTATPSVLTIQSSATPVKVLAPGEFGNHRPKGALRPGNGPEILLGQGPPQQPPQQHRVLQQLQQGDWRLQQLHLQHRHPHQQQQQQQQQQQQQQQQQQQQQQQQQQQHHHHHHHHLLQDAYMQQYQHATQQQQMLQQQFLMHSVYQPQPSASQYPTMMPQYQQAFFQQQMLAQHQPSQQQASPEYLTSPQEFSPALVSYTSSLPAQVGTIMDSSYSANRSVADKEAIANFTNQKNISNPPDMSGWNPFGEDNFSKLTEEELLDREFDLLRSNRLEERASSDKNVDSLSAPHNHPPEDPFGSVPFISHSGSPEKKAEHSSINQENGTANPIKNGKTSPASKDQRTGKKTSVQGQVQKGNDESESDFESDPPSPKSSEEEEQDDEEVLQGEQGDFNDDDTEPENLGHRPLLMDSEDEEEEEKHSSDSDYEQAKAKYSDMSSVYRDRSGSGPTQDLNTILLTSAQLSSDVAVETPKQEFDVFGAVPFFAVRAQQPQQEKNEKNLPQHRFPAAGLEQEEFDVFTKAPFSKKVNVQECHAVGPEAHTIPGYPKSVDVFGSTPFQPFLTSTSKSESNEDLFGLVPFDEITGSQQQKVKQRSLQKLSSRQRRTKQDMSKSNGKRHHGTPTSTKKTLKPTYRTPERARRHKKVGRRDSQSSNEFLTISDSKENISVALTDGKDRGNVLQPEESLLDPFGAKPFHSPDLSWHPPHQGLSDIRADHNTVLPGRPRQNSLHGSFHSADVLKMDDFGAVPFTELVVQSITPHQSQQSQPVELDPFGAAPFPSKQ
Chain of BCR (P11274 whole entry): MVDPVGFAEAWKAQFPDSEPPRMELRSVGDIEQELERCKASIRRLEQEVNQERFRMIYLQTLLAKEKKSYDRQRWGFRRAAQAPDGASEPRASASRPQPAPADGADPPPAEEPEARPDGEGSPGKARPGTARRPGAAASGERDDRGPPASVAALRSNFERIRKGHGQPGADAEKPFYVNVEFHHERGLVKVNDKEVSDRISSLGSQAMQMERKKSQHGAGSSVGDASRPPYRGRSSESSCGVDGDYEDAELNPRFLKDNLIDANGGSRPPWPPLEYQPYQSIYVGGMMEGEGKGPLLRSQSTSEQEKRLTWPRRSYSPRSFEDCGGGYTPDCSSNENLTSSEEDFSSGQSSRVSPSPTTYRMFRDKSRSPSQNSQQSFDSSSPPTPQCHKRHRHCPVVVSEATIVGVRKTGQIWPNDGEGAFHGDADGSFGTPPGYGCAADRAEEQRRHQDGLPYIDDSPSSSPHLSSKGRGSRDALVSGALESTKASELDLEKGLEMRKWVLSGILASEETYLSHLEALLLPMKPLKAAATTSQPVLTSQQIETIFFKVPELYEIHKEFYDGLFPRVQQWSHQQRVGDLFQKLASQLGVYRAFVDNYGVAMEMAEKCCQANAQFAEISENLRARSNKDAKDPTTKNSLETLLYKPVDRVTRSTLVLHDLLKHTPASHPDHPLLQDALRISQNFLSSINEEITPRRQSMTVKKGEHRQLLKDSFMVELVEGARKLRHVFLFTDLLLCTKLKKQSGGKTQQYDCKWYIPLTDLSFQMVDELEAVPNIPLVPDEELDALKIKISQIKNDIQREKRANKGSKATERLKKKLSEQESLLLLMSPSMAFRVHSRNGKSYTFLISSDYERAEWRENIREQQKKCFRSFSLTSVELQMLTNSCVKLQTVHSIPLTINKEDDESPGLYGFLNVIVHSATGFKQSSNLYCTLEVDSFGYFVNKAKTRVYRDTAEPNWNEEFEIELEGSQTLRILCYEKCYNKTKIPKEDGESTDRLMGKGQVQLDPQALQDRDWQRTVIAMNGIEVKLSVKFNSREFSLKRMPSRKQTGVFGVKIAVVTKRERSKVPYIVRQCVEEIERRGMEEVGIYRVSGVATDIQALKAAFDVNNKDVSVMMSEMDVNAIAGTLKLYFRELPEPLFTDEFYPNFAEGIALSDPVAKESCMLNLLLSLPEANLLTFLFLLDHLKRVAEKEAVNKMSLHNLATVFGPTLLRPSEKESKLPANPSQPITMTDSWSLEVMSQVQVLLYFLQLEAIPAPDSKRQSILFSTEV
Chain of MPSK1 (O75716 whole entry): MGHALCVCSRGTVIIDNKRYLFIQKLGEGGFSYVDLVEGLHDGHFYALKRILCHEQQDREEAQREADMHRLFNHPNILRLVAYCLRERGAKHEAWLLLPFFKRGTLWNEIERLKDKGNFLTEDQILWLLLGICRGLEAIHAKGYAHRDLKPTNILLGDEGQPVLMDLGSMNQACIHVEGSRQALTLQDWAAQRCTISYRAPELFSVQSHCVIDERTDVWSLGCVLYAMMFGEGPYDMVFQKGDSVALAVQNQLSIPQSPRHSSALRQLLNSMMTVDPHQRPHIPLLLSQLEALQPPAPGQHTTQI
Chain of CDC2 (P06493 whole entry): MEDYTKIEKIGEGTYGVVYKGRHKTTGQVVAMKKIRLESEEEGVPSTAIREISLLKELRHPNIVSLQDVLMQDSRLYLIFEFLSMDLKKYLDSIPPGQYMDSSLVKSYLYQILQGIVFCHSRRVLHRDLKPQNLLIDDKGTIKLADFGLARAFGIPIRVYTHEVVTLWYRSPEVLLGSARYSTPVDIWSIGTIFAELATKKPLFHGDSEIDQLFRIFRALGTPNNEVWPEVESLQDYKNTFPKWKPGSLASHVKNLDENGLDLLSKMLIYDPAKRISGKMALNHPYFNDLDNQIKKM
Chain of PKN1 (Q16512 whole entry): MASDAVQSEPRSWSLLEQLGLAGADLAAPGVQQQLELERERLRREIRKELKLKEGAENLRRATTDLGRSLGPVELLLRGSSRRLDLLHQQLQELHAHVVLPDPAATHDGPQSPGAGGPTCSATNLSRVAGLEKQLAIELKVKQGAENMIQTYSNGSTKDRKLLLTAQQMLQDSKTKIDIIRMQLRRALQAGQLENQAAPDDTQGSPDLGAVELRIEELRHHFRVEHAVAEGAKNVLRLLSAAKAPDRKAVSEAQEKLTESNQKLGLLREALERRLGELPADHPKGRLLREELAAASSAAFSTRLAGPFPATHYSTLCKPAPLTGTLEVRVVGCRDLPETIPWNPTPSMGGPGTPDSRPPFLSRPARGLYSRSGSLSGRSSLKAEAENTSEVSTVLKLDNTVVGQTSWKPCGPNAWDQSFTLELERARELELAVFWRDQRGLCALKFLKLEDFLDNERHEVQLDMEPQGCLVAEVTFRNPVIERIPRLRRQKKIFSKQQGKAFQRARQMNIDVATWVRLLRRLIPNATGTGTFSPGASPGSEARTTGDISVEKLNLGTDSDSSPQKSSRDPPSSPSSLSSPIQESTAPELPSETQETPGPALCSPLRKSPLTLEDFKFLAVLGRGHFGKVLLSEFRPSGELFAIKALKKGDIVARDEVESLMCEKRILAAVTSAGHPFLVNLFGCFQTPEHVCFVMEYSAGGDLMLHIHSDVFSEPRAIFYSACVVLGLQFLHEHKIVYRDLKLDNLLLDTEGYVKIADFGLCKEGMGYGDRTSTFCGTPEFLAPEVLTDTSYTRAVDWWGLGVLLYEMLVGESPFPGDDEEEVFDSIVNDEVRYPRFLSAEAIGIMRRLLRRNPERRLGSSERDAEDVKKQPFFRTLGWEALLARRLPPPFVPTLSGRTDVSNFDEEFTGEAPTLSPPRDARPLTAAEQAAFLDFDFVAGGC

inhibition at 10 µM [1]: 93.7%
inhibition at 10 µM [2]: 91.5%
inhibition at 10 µM [3]: 95.4%
inhibition at 10 µM [4]: 90.2%
inhibition at 10 µM [5]: 93.9%
inhibition at 10 µM [6]: 94.9%
inhibition at 10 µM [7]: 92.9%
inhibition at 10 µM [8]: 93.4%
Compound: CS(=O)(=O)Nc1ccccc1Nc1nc(Nc2cccc(OCCN)c2)ncc1Cl [CZC31326, N-(2-(2-(3-(2-aminoethoxy)phenylamino)-5-chloropyrimidin-4-ylamino)phenyl)methanesulfonamide]
